The target of data set [1] is T1, farnesyl-protein transferase (FPTase) (Rattus norvegicus, UniProt Q02293+Q04631).
T1 construct: a cerebrum obtained from white rat; from tissue; host or cells: rat cerebrum (male Sprague-Dawley, 100-150 g), homogenate, partially purified on Q Sepharose Fast Flow
Kind of data set: Farnesyl-protein transferase inhibiting activity, scintillation proximity assay with 3H-FPP and biotin-lamin B peptide. It is filed as biochemical. Particulars: read-out: IC50 values for FPTase Inhibition. Here is the method: First, a cerebrum obtained from white rat(male Spraguo Dowley 100-150 g) was washed with physiological saline solution and homogenized. The homogenized solution was centrifuged and partially purified by using Q sepharose fast flow column to obtain farnesyl protein transferase(FPTase).
10 μl of a sample, 40 μl of FPTase obtained above, 10 μl of an assay buffer(50 mM Tris-HCl, pH 7.5, 25 mM MgCl2, 2 mM KCl, 5 mM DTT, 5 mM Na2 HPO4, 0.01% Triton X-100), 20 μl of diluted ^3 H-FPP and 20 μl of biotin-lamin B peptide were mixed together and the resulting mixture was reacted at room temperature for 30 minutes. 150 μl of SPA bead/stop reagent solution was added to the mixture and the enzymatic activity was determined by examining the extent of biotin lamin B peptide farneslyation, expressed by a unit of count per minute(CPM), with a liquid scintillation counter.

A short description of another data set: Solubility. It is filed as physicochemical.
For data set [2], the system named is angiogenesis, chorioallantoic membrane (CAM). Kind of data set: Angiogenesis suppressing activity, chorioallantoic membrane (CAM) assay. Particulars: fertilized chicken egg, read-out: IC50 values for Angiogenesis Suppression. It is filed as in vivo. As to the method: Angiogenesis was determined in accordance with the chorioallantoic membrane(CAM) assay method of Kusaka et al. described in Biochem. Biophy. Res. Comm., 174, 1070(1991) by using a fertilized chicken egg.
A fertilized chicken egg(Pulmuwon co., Korea) was incubated at 37°-38° C. and a humidity of more than 90%. Here, 0 day-embryo means that the fertilized egg had been storaged at 18° C. for no more than 3-4 days since laying.
The pointed end of the fertilized egg was scratched with a knife, laid horizontally, the scratched site was punctured with a 5 ml syringe and 2 ml of albumin was extracted from the fertilized egg. The puncture hole was then sealed with a glass-tape. The fertilized egg, laid such that the sealed hole is located at the bottom, was incubated under the same condition described above.
The other end of the fertilized egg where the air sac is located, i.e., the end opposite to the hole site was opened, a window having a diameter of 2-3 cm was installed therein, the window was sealed with a glass-tape, and the incubation was resumed.
At this time, a chorioalletoic membrane(CAM) of 2-5 mm diameter develop. A arteminolide sample was dissolved in distilled water or ethanol, 10 μl of the sample solution was dropped on quartered Thermanox coverslip(Nunc, Co.,) and dried in a clean bench. The sealing glass-tape was removed, the treated Thermanox coverslip obtained above was laid on the CAM and then sealed with a glass-tape. All tools used in the above procedure were pre-sterilized with 70% ethanol.
The sealing glass-tape was removed. 1 ml of Intralipose(fat emulsion, Green Cross co., Korea) was taken with syringe, removed an air bobble therefrom and injected into an area below the CAM.
Angiogenesis suppressing activity was then calculated in accordance with the following equation: [formula]

The mark [3] stands for this setting: MeOH, acetone, chloroform, DMSO.

Broadly, the IC50 is the midpoint of a concentration-inhibition curve.

Like-named read-outs stand apart in the source and are kept apart here.

Turning to `C=C1C(=O)OC2C1CCC(C)(O)C13C=CC(C)(C21)C1(C3)C(=O)OC2C3C(C)=CC(=O)C3=C(C)CC(OC(=O)/C(C)=C\C)C21` (stereo not drawn) [Arteminolide C], the IC50 in data set [1] (listed as C) was found to be 0.74 µM; in data set [2] (listed as C), 0.5 µM. The Solubility entry is given as “soluble” in “Solubility” (setting [3]) and “insoluble” in the data set “Solubility” (hexane, H2O).
As to `C=C1C(=O)OC2C1CCC(C)(O)C13C=CC(C)(C21)C1(C3)C(=O)OC2C3C(C)=CC(=O)C3=C(C)CC(OC(=O)/C(C)=C\C)C21` (stereo not drawn) [Arteminolide E], the IC50 was found to be 150 µM in data set [1] (listed as E) and 20 µM in data set [2] (listed as E). The Solubility result in “Solubility” (hexane, H2O) is on record as “insoluble”.
Consider `C=C1C(=O)OC2C1CCC(C)(O)C13C=CC(C)(C21)C1(C3)C(=O)OC2C3C(C)=CC(=O)C3=C(C)CC(OC(=O)CC(C)C)C21` (stereo not drawn) [Arteminolide A], for which the IC50 was 0.38 µM in data set [1] and 5.4 µM in data set [2] (listed as A).
For the compound `C=C1C(=O)OC2C1CCC(C)(O)C13C=CC(C)(C21)C1(C3)C(=O)OC2C3C(C)=CC(=O)C3=C(C)CC(OC(=O)C=C(C)C)C21` (stereo not drawn) [Arteminolide B], the IC50 in data set [1] was determined as 0.4 µM; in data set [2] (Gallus gallus), 5.2 µM. Moreover, the Solubility entry in the data set “Solubility” (setting [3]) is recorded as “soluble”; in the data set “Solubility” (hexane, H2O), “insoluble”.
With `C=C1C(=O)OC2C1CCC(C)(O)C13C=CC(C)(C21)C1(C3)C(=O)OC2C3C(C)=CC(=O)C3=C(C)CC(OC(=O)CC(C)C)C21` (stereo not drawn) [Arteminolide F], the IC50 in data set [1] came out at 160 µM; in data set [2] (listed as F), 24 µM. Further, the Solubility result in the data set “Solubility” (setting [3]) was “soluble”; in the data set “Solubility” (hexane, H2O) it was “insoluble”.
With `C=C1C(=O)OC2C1CCC(C)(O)C13C=CC(C)(C21)C1(C3)C(=O)OC2C3C(C)=CC(=O)C3=C(C)CC(OC(=O)/C(C)=C/C)C21` (stereo not drawn) [Arteminolide D], the IC50 was 0.63 µM in data set [1] and 6.2 µM in data set [2] (Gallus gallus). Also, the Solubility entry in the data set “Solubility” (setting [3]) is “soluble”; in “Solubility” (hexane, H2O), “insoluble”.

The values are drawn from patent US5801254A, “Arteminolide derivatives and process for the manufacture thereof” (Korea Institute of Science and Technology, priority 1996, dated 1998).
